Test results as given in ChEMBL document CHEMBL1671719, “Inhibition of antibiotic-resistant Staphylococcus aureus by the broad-spectrum dihydrofolate reductase inhibitor RAB1” (Antimicrob Agents Chemother, 2010).
pIC50, pKi: −log10 of the molar value. ≈ marks a conversion by molar mass, not a printed value. Where “and” joins values, the source holds several entries; their conditions need not be identical. Equal entries are not always repeated.

How the values were obtained:
Staphylococcus aureus [1] = assay: Antimicrobial activity against vancomycin-resistant Staphylococcus aureus VRS2 by broth microdilution method; type: functional
Staphylococcus aureus [2] = assay: Antimicrobial activity against methicillin-resistant Staphylococcus aureus isolate NRS70 by broth microdilution method; type: functional
Staphylococcus aureus [3] = assay: Antimicrobial activity against methicillin-resistant Staphylococcus aureus isolate NRS1 by broth microdilution method; type: functional
Staphylococcus aureus [4] = assay: Antimicrobial activity against vancomycin-resistant Staphylococcus aureus VRS3 by broth microdilution method; type: functional
Staphylococcus aureus [5] = assay: Antimicrobial activity against vancomycin-resistant Staphylococcus aureus VRS1 by broth microdilution method; type: functional
Staphylococcus aureus [6] = assay: microbe, parasite or virus in culture; conditions: isolate NRS123
Staphylococcus aureus [7] = assay: microbe, parasite or virus in culture; conditions: isolate NRS71
Brucella abortus = assay: Antimicrobial activity against Brucella abortus 2308 by broth microdilution method; type: functional
Francisella tularensis = assay: Antimicrobial activity against Francisella tularensis Schu4 by broth microdilution method; type: functional
Yersinia pestis = assay: Antimicrobial activity against Yersinia pestis CO92 by broth microdilution method; type: functional
Bacillus anthracis = assay: Antimicrobial activity against Bacillus anthracis Ames by broth microdilution method; type: functional
Staphylococcus aureus [8] = assay: Ratio of Ki for TMP-resistant Staphylococcus aureus DHFR to Ki for wild type Staphylococcus aureus DHFR
Enterococcus faecalis = assay: Antimicrobial activity against vancomycin-resistant Enterococcus faecalis ATCC 700802 by broth microdilution method; type: functional
Dihydrofolate reductase [9] = target: Dihydrofolate reductase (Staphylococcus aureus, UniProt P0A017, F99Y); assay: Inhibition of Staphylococcus aureus DHFR F98Y mutant by MTS assay
Dihydrofolate reductase [10] = target: Dihydrofolate reductase (Staphylococcus aureus, UniProt P0A017); assay: Inhibition of Staphylococcus aureus wild type recombinant DHFR by MTS assay
Staphylococcus aureus [11] = assay: Antimicrobial activity against methicillin-resistant Staphylococcus aureus; type: functional

| Molecule | MIC (Staphylococcus aureus [1]) [µg/mL] | MIC (Staphylococcus aureus [2]) [µg/mL] | MIC (Staphylococcus aureus [3]) [µg/mL] | MIC (Staphylococcus aureus [4]) [µg/mL] | MIC (Staphylococcus aureus [5]) [µg/mL] | MIC (Staphylococcus aureus [6]) [µg/mL] | MIC (Staphylococcus aureus [7]) [µg/mL] | further results |
| --- | --- | --- | --- | --- | --- | --- | --- | --- |
| GENTAMICIN | > 16 | 1 | > 16 | > 16 | > 16 |  |  |  |
| CN(C)[C@@H]1C(O)=C(C(N)=O)C(=O)[C@@]2(O)C(O)=C3C(=O)c4c(O)cccc4[C@@](C)(O)[C@H]3C[C@@H]12 [TETRACYCLINE] |  |  | 32 (≈ 72 µM) |  |  | 32 (≈ 72 µM) |  |  |
| CC(=O)NC[C@H]1CN(c2ccc(N3CCOCC3)c(F)c2)C(=O)O1 [LINEZOLID] | 1 (≈ 2.96 µM) | 1 (≈ 2.96 µM) |  |  |  |  | 1 (≈ 2.96 µM) |  |
| CC1(C)S[C@@H]2[C@H](NC(=O)Cc3ccccc3)C(=O)N2[C@H]1C(=O)O [PENICILLIN G] | > 2 | > 2 | > 8 | > 2 | > 2 | > 2 | > 2 |  |
| CCCC1c2ccccc2C=NN1C(=O)/C=C/c1cc(Cc2cnc(N)nc2N)cc(O)c1OC (centres undefined) | 4 (≈ 8.46 µM) | ≤ 0.0625 | ≤ 0.0625 | ≤ 0.125 | 8 (≈ 16.9 µM) | ≤ 0.0625 | ≤ 0.0625 | MIC (Brucella abortus): 16 µg/mL (≈ 33.9 µM); MIC (Francisella tularensis): 1 µg/mL (≈ 2.12 µM); MIC (Yersinia pestis): 4 µg/mL (≈ 8.46 µM); MIC (Bacillus anthracis): 1 µg/mL (≈ 2.12 µM); Ratio IC50 (Staphylococcus aureus [8]): 0.9; Ratio Ki (Staphylococcus aureus [8]): 0.3; MIC (Enterococcus faecalis): 0.03 µg/mL (≈ 0.0635 µM); pIC50 (Dihydrofolate reductase [9]): 8.06 and 7.65; pKi (Dihydrofolate reductase [9]): 9.05; pIC50 (Dihydrofolate reductase [10]): 8.03 and 8.28; pKi (Dihydrofolate reductase [10]): 8.55 |
| O=C(O)c1cn(C2CC2)c2cc(N3CCNCC3)c(F)cc2c1=O [CIPROFLOXACIN] | > 16 | 0.5 (≈ 1.51 µM) |  | > 16 | > 16 | 0.5 (≈ 1.51 µM) | > 16 |  |
| CCC[C@H]1c2ccccc2C=NN1C(=O)/C=C/c1cc(Cc2cnc(N)nc2N)cc(OC)c1OC |  |  |  |  |  |  |  | Ratio IC50 (Staphylococcus aureus [8]): 0.6; Ratio Ki (Staphylococcus aureus [8]): 0.2; pKi (Dihydrofolate reductase [9]): 9.70; pIC50 (Dihydrofolate reductase [10]): 8.54 and 7.90; pKi (Dihydrofolate reductase [10]): 9.05 |
| COc1cc(Cc2cnc(N)nc2N)cc(OC)c1OC [TRIMETHOPRIM] | > 256 | 2 (≈ 6.89 µM) | 2 (≈ 6.89 µM) | 2 (≈ 6.89 µM) | > 256 | 2 (≈ 6.89 µM) | 2 (≈ 6.89 µM) | MIC (Brucella abortus): 32 µg/mL (≈ 110 µM); MIC (Francisella tularensis): 16 µg/mL (≈ 55.1 µM); MIC (Yersinia pestis): ≤ 1 µg/mL; MIC (Bacillus anthracis): > 256 µg/mL; MIC (Enterococcus faecalis): ≤ 1 µg/mL |
| CC[C@H]1OC(=O)[C@H](C)[C@@H](O[C@H]2C[C@@](C)(OC)[C@@H](O)[C@H](C)O2)[C@H](C)[C@@H](O[C@@H]2O[C@H](C)C[C@H](N(C)C)[C@H]2O)[C@](C)(O)C[C@@H](C)C(=O)[C@H](C)[C@@H](O)[C@]1(C)O [ERYTHROMYCIN] | > 8 | > 8 |  | > 8 | > 8 | 0.5 (≈ 0.681 µM) | > 8 |  |
| Nc1ccnc(N)n1 [DIAMINOPYRIMIDINE] |  |  | 2 (≈ 18.2 µM) |  |  | 0.5 (≈ 4.54 µM) |  |  |
| COc1cc(Cc2cnc(N)nc2N)c2c(c1OC)OC(C1CC1)C=C2 (centres undefined) |  |  |  |  |  |  |  | MIC (Staphylococcus aureus [11]): ≤ 0.06 µg/mL |
| Cc1onc(-c2ccccc2)c1C(=O)N[C@@H]1C(=O)N2[C@@H]1SC(C)(C)[C@@H]2C(=O)O [OXACILLIN] | > 16 | > 16 | > 32 | > 16 | > 16 | > 16 | > 16 |  |
| CN[C@H](CC(C)C)C(=O)N[C@H]1C(=O)N[C@@H](CC(N)=O)C(=O)N[C@H]2C(=O)N[C@H]3C(=O)N[C@H](C(=O)N[C@H](C(=O)O)c4cc(O)cc(O)c4-c4cc3ccc4O)[C@H](O)c3ccc(c(Cl)c3)Oc3cc2cc(c3O[C@@H]2O[C@H](CO)[C@@H](O)[C@H](O)[C@H]2O[C@H]2C[C@](C)(N)[C@H](O)[C@H](C)O2)Oc2ccc(cc2Cl)[C@H]1O [VANCOMYCIN] | 64 (≈ 44.2 µM) |  | 8 (≈ 5.52 µM) | > 32 | > 256 |  |  |  |
| COc1cc([C@H](C)C#Cc2c(C)nc(N)nc2N)ccc1-c1c(C)cccc1C |  |  |  |  |  |  |  | pIC50 (Dihydrofolate reductase [9]): 6.72; pIC50 (Dihydrofolate reductase [10]): 7.21 |
| COc1ncc([C@H]2c3ccccc3C=NN2C(=O)/C=C/c2cc(Cc3cnc(N)nc3N)cc(OC)c2OC)cn1 |  |  |  |  |  |  |  | Ratio IC50 (Staphylococcus aureus [8]): 5.7; Ratio Ki (Staphylococcus aureus [8]): 1.9; pIC50 (Dihydrofolate reductase [9]): 7.18; pKi (Dihydrofolate reductase [9]): 8.19; pIC50 (Dihydrofolate reductase [10]): 7.94 and 8.41; pKi (Dihydrofolate reductase [10]): 8.46 |
| COc1cc(-c2ccccc2)cc([C@@H](C)C#Cc2c(C)nc(N)nc2N)c1 |  |  |  |  |  |  |  | pIC50 (Dihydrofolate reductase [9]): 6.72; pIC50 (Dihydrofolate reductase [10]): 7.21 |
| CCC[C@@H]1C[C@@H](C(=O)N[C@@H]([C@H]2O[C@H](SC)[C@H](O)[C@@H](O)[C@H]2O)[C@H](C)Cl)N(C)C1 [CLINDAMYCIN] | > 4 | > 4 |  | > 4 | > 4 | 0.12 (≈ 0.282 µM) | > 4 |  |
